The data set is described as follows: Evaluation of composition stability of PSE and fish oil mixtures with test reagents. The note with it: fish oil 2 g. In kind it is physicochemical. The protocol:
Varying amounts of PSE and fish oil were mixed in a 50 ml beaker. The mixture was warmed to 35-40° C. A variety of test reagents, including surfactants and small carboxylic acid esters, were then examined for their ability to stabilize the mixture at room temperature (RT), 40° C., and 50° C.

Where [1] appears, read: Phytosterol 4 g, test reagent 0.10 g.
The mark [2] stands for this setting: Phytosterol 4 g, test reagent 0.20 g.
Where [3] appears, read: Phytosterol 4 g, test reagent 0.30 g.
[4] abbreviates: Phytosterol 4 g, test reagent 0.40 g.
Where [5] appears, read: Phytosterol 2 g, test reagent 0.10 g.

Where a name gives a salt, the structure may show the parent alone.

Take `O=C(O)CC(O)(CC(=O)O)C(=O)O` [Citric Acid]: the Stability results under setting [1] was “insoluble”, the Stability results under setting [2] is listed as “insoluble” and the Stability results under setting [3] is listed as “insoluble”.
Regarding `CCOC(=O)[C@H](O)[C@@H](O)C(=O)OCC` [Diethyl L-tartrate], the Stability results is “stable (stable (did not separate for 24 hours))” under setting [1], “stable (stable (did not separate for 24 hours))” under setting [2] and “stable (stable (did not separate for 24 hours))” under setting [3].
`CCOC(=O)/C=C\C(=O)OCC` [Diethyl Maleate]: the Stability results was “stable (stable (did not separate for 24 hours))” under setting [1], “stable (stable (did not separate for 24 hours))” under setting [2] and “insoluble” under setting [3].
For the compound `OCC(O)CO` [Glycerin], the Stability results under setting [1] is reported as “insoluble”.
As for `CCOC(=O)CC(O)(CC(=O)OCC)C(=O)OCC` [Triethyl Citrate], the Stability results is given as “unstable (unstable (separated quickly, usually less than 1-2 hr))” (Phytosterol 2 g, test reagent 0.30 g); “stable (stable (did not separate for 24 hours))” under setting [1]; “stable (stable (did not separate for 24 hours))” under setting [2]; “stable (stable (did not separate for 24 hours))” under setting [3]; “stable (stable (did not separate for 24 hours))” under setting [4].
Regarding Polysorbate 20, the Stability results is, setting by setting: under setting [1], “unstable (unstable (separated quickly, usually less than 1-2 hr))”; under setting [2], “unstable (unstable (separated quickly, usually less than 1-2 hr))”.
In the case of Polysorbate 60, the Stability results is “unstable (unstable (separated quickly, usually less than 1-2 hr))” under setting [5]; “unstable (unstable (separated quickly, usually less than 1-2 hr))” under setting [2]; “unstable (unstable (separated quickly, usually less than 1-2 hr))” under setting [3]; “unstable (unstable (separated quickly, usually less than 1-2 hr))” under setting [4].
For Polysorbate 80, the Stability results runs as follows: under setting [5], “unstable (unstable (separated quickly, usually less than 1-2 hr))”; under setting [2], “unstable (unstable (separated quickly, usually less than 1-2 hr))”.
As for Sodium Caproyl Lactylate, under setting [2], the Stability results is reported as “unstable (unstable (separated quickly, usually less than 1-2 hr))”.
Regarding Sodium Isostearyl Lactylate, the Stability results under setting [1] is listed as “unstable (unstable (separated quickly, usually less than 1-2 hr))”.
As for Sorbitan Oleate, the Stability results reads like this: under setting [1], “unstable (unstable (separated quickly, usually less than 1-2 hr))”; under setting [2], “unstable (unstable (separated quickly, usually less than 1-2 hr))”; under setting [3], “unstable (unstable (separated quickly, usually less than 1-2 hr))”; under setting [4], “unstable (unstable (separated quickly, usually less than 1-2 hr))”.

(Values after patent publication US20050032757A1, “Nutritional supplements” (priority 2003, published 2005).)
